Here are results for one compound from patent publication US5661175A, “Hemiasterlin and geodiamolide TA” (priority 1995, dated 1997).

Assay [1] has as its system P-388. The assay can be described thus: Antitumor cell screening, P-388 growth inhibition. It is filed as cell-based, DBA/2 mouse. Conditions: Mus musculus, 72 h; P388; three days incubation at 37° C.; approximate IC50. How it is done:
(§1) Cells were maintained in logarithmic phase of growth in Eagle's Minimum Essential Medium, with Earle's Balanced Salts, with 2.0 mM L-Glutamine, with non-essential Amino Acids, without Sodium Bicarbonate (EMEM/NEAA); supplemented with 10% Fetal Calf Serum (FCS), 10^-2M Sodium Bicarbonate and 0.1 g/l Penicillin-G+Streptomycin Sulfate.
(§2) A simple screening procedure has been carried out to determine and compare the antitumor activity of these compounds, using an adapted form of the method described by Bergeron et al. (1984). The antitumor cell employed have been P-388 (suspension culture of a lymphoid neoplasm from DBA/2 mouse), A-549 (monolayer culture of a human lung carcinoma), HT-29 (monolayer culture of a human colon carcinoma) and MEL-28 (monolayer culture of a human melanoma).
P-388 cells were seeded into 16 mm wells at 1×10^4 cells per well in 1 ml aliquots of MEM 5FCS containing the indicated concentration of drug. A separate set of cultures without drug was seeded as control growth to ensure that cells remained in exponential phase of growth. All determinations were carried out in duplicate. After three days of incubation at 37° C., 10% CO2 in a 98% humid atmosphere, an approximately IC50 was determined by comparing the growth in wells with drug to the growth in wells control.

Assay [2] concerns A-549. The assay is described as follows: Antitumor cell screening, A-549 growth inhibition (Crystal Violet). It is filed as cell-based. Conditions: Homo sapiens, 72 h; A549; three days incubation at 37° C.; approximate IC50. How it is done: as §1, §2
(§3) A-549, HT-29 and MEL-28 were seeded into 16 mm wells at 2×10^4 cells per well in 1 ml aliquots of MEM 10FCS containing the indicated concentration of drug. A separate set of cultures without drug was seeded as control growth to ensure that cells remained in exponential phase of growth. All determinations were carried out in duplicate. After three days of incubation at 37° C., 10% CO2 in a 98% humid atmosphere, the wells were stained with 0.1% Crystal Violet. An approximately IC50 was determined by comparing the growth in wells with drug to the growth in wells control.

Assay [3] relates to HT-29. The assay can be described thus: Antitumor cell screening, HT-29 growth inhibition (Crystal Violet). Conditions: Homo sapiens, HT-29, 72 h; HT29; three days incubation at 37° C.; approximate IC50. Type of assay: cell-based. Here is the method: as §1, §2, §3
In assay [4] the test system is MEL-28. The assay can be described thus: Antitumor cell screening, MEL-28 growth inhibition (Crystal Violet). It is filed as cell-based. Conditions: Homo sapiens, SK-MEL-28, 72 h; MEL28; three days incubation at 37° C.; approximate IC50. How it is done:
as §1, §2, §3

Structures are written as SMILES. ≈ marks a conversion by molar mass, not a printed value.

In general, IC50 refers to the concentration that inhibits the measured activity by half. Low readings indicate greater potency, high ones weaker potency.

Consider `C/C1=C\C(C)CC(C)OC(=O)C(C(C)C)NC(=O)C(Cc2ccc(O)c(I)c2)N(C)C(=O)C(C)NC(=O)C(C)C1` (stereo not shown) [Compound 3, geodiamolide TA], for which the concentration for half-maximal inhibition (IC50) was found to be 0.01 µg/mL (≈ 0.0149 µM) in assay [1], 0.01 µg/mL (≈ 0.0149 µM) in assay [2], 0.005 µg/mL (≈ 0.00747 µM) in assay [3] and 0.01 µg/mL (≈ 0.0149 µM) in assay [4].
